Experimental data: patent US10028506B2, “Plant strengthener comprising a tocopherol and a boron compound” (COMPO EXPERT GMBH, priority 2013, dated 2018)

Key:
Type in all cases: in vivo
[1] = test system: tangerine trees cv. "satsuma" fruits; assay: Protection against sun-scorch, field experiments on tangerines (satsumas); conditions: dilute aqueous preparation (0.25 kg/ha); tangerines field experiment
Experimental: For the field experiments, the formulations were diluted with tap water in an amount of 100 l per kg of formulation. The plants were sprayed with the aqueous dilution with the aid of a commercially available plant protection sprayer at an application rate of 0.25 kg tocopherol/ha. The study was carried out in a fruit plantation in South Africa (Western Cape region, Simondium) in February. To this end, tangerine trees cv. “satsuma” were sprayed with an aqueous dilution of formulation F2 or formulation FV2 6 days before the harvest in two adjacent plots, in parallel experiments. The controls used were in each case untreated trees of the same plot. To determine the damage, in each case approximately 30 fruits were harvested from each tree of the treated trees and of the untreated trees and then observed. The proportion of damaged fruits of the treated trees and of the untreated trees of the respective experiment was determined, and the percentage reduction in damage was determined on this basis. Damage was considered to be yellowish discolorations of the green fruit skin.

[2] = test system: apple (variety Elstar) inflorescences, severed branches; assay: Frost protection activity on apple inflorescences in frost chamber; conditions: dilute aqueous preparation (0.25 kg/ha), −2° C. for 4 hours
Experimental: (§1) For the following studies, tocopherol-comprising formulations were diluted with water to give a tocopherol concentration of 0.25% by weight.
(§2) Boroethanolamine was diluted with water to give a concentration of 0.25% by weight.
(§3) Freshly severed branches with 20 to 50 inflorescences (inflorescence stage BBCH 60-69) were used for studying the protection of inflorescences. The twigs were sprayed to runoff point with the aqueous dilution of the respective formulation, using a hand-held sprayer.
(§4) The tests of the formulations in respect of their frost protectant activity were carried out under controlled conditions in frost chambers with fruit-tree inflorescences (apple (variety Elstar), severed branches, sweet cherry (variety Hedelfinger), severed branches).
(§5) The fruit trees were treated 24 hours before the frost event by spraying the inflorescences with the dilute formulation.
(§6) (b) Treatment with formulation FV1 (0.25 g/l tocopherol),
(§7) (c) Treatment with formulation F1 (0.25 g/l tocopherol)+0.25 g/l boroethanolamine).
(§8) The branches were severed from the plant shortly before the test and then exposed to a temperature of −2° C. for a defined period (4 hours). On the following day, the relative number of the inflorescences with frost damage was determined visually. Damage was considered to be browning of the floral tissue (pedicel and ovaries).

[3] = test system: sweet cherry (variety Hedelfinger) inflorescences, severed branches; assay: Frost protection activity on sweet cherry inflorescences in frost chamber; conditions: dilute aqueous preparation (0.25 kg/ha), −2° C. for 4 hours
Experimental: as §1, §2, §3, §4, §5, §6, §7, §8

[4] = test system: apple trees cv. "Granny Smith" fruits; assay: Protection against sun-scorch, field experiments on apples; conditions: dilute aqueous preparation (0.25 kg/ha); apples field experiment
Experimental: For the field experiments, the formulations were diluted with tap water in an amount of 100 l per kg of formulation. The plants were sprayed with the aqueous dilution with the aid of a commercially available plant protection sprayer at an application rate of 0.25 kg tocopherol/ha. The study was carried out in an apple plantation in South Africa (Somerset-West region) in February. To this end, apple trees cv. “Granny Smith” were sprayed with an aqueous dilution of formulation F2 or formulation FV2 8 days before the harvest in two adjacent plots, in parallel experiments. The controls used were in each case untreated trees of the same plot. To determine the damage, in each case approximately 30 fruits were harvested from each tree of the treated trees and of the untreated trees and then observed. The proportion of damaged fruits of the treated trees and of the untreated trees of the respective experiment was determined, and the percentage reduction in damage was determined on this basis. Damage was considered to be reddish and brownish discolorations of the fruit skin.

NCCOB(O)O [boroethanolamine]
no significant change over the control: change in sun-scorch damage over the control [1] | change in frost damage over the control [2] | change in frost damage over the control [3] | change in sun-scorch damage over the control [4]
